This is an account of results in US20130217765A1, “MULTIFUNCTIONAL NANOCONJUGATES AND USES THEREOF” (priority 2012, published 2013).

For assay [1], the system named is plasmid DNA. In words: Plasmid DNA nicking by agarose gel electrophoresis after light exposure. The assay is classed as biochemical. The following applies: visible light, 150 W halogen bulb, 10 min.
Method: The effect of visible light activated ARS-coated TiO2 nanoparticles was assessed by illuminating plasmid containing samples with a Fiber-Lite MI-150High Intensity Fiber Optic EKE 150 W21VHalogen Light Illuminator (Dolan-Jenner Industries, Boxborough, Mass., USA) for 10 min. […] All samples were then run on a 1.25% agarose gel at 60V for 4 h, stained with GelStar (Lonza, Mapleton, Ill., USA), and imaged on a Kodak Gel Logic 2200 Imaging System (Kodak, Rochester, N.Y., USA).
Considering these factors, we sought to determine the effect of visible light activated ARS-coated TiO2 nanoparticles on plasmid DNA integrity using a standard agarose gel electrophoresis technique developed by others. According to this assay, nicked (single-stranded DNA break), linear (double-stranded DNA break), and supercoiled (undamaged) plasmid DNA can be distinguished on an agarose gel by viewing differences in mobility (with the nicked plasmid DNA migrating at the slowest rate and supercoiled plasmid DNA migrating at the fastest rate) [13,15]. Samples were prepared that contained plasmid DNA and either (1) dH2O, (2) ARS, (3) TiO2 nanoparticles, or (4) ARS-coated TiO2 nanoparticles. […]
The test system of assay [2] is kanamycin-resistant E. coli. Description: Bacterial assay: incubation with samples, halogen light, plating on kanamycin LB agar. In kind it is cell-based. As to conditions: incubated 10 minutes, 150 W halogen bulb 10 minutes, plated overnight at 37° C. The method, then:
When using dye-coated TiO2 nanoconjugates to inflict damage on bacteria, the dye alizarin red s was used (FIG. 24). The following protocol was used: a bacterial culture of kanamycin-resistant E. coli was grown overnight at 37° C. at 250 rpm and then stored at 4° C. for later use in the experiment. Aliquots of the starter bacterial culture were then incubated with either (1) dH2O, (2) alizarin red s, (3) 6 nm TiO2 nanoparticles, or (4) alizarin red s-coated-6 nm TiO2 nanoconjugates for 10 minutes. All samples were then exposed to a 150 W halogen bulb for 10 minutes and plated on kanamycin-containing LB agar plates, incubated overnight at 37° C., and photographed with a digital camera.

Assay [3] relates to emerin. Description: Emerin integrity and distribution in HeLa cells, fluorescence confocal microscopy. The assay is classed as cell-based. As to conditions: regardless of light treatment. The method, then: (§1) HeLa cells were grown on #1 glass coverslips to approximately 20% confluence and then exposed to ARS-coated TiO2 nanoparticles or appropriate controls overnight. Respective samples were either exposed to no light or light with a Fiber-Lite MI-150 High Intensity Fiber Optic 150 W Halogen Light Illuminator for 10 min. All samples were fixed in 3.6% formaldehyde (Fisher Scientific, Waltham, Mass., USA) and permeabilized in 0.2% Triton-100× (Fisher Scientific) for 10 min. Cells were then stained with either a mouse monoclonal to emerin primary antibody (Abcam, Cambridge, Mass., USA) followed by an Alexa488 goat anti-mouse IgG (H+L) secondary antibody (Invitrogen, Grand Island, N.Y., USA) or a chicken polyclonal to lamin B1 primary antibody (Abcam) followed by an Alexa488 goat anti-chicken IgG (H+L) secondary antibody (Invitrogen). All samples were then stained with Hoechst 33342 (Sigma) and coverslips were mounted in P-phenylenediamine containing mounting media. Samples were imaged on an Olympus IX81-UCB Spinning Disc Confocal Microscope (Olympus, Center Valley, Pa., USA) using a 100 W mercury burner (Ushio, Tokyo, Japan), Brightline filters for DAPI, FITC, and TEXAS RED (Semrock, Rochester, N.Y., USA), and an ORCA-ER-1394 high-resolution digital camera (Hamamatsu, Japan). All images are presented as […] optical slice fluorescence overlays in either two or three dimensions. […]

Assay [4] concerns lamin B1. Description: Lamin B1 integrity and distribution in HeLa cells, fluorescence confocal microscopy. The assay is classed as cell-based. As to conditions: light or no light. The procedure:
as §1

In assay [5] the test system is HeLa cells. In words: Duration of light exposure on HeLa cells treated with dye-modified TiO2 nanoparticles. The assay is classed as cell-based. The following applies: dark or 30 minutes of 750 W halogen visible light, fixed 24 hours post exposure. The method, then:
In this Example, we tested the duration of light exposure on cells treated with dye-modified TiO2 nanoparticles. […] Cells were fixed in 4% formaldehyde 24 hours post exposure and 1 μm slices fluorescence confocal images are presented. […] The cellular response is heterogeneous.

For the molecule `O=C1c2ccccc2C(=O)c2c1cc(S(=O)(=O)[O-])c(O)c2O.[Na+]` [ARS, alizarin red s], the “nicking of plasmid DNA” value in assay [1] is “slight expected increase in nicked plasmid DNA”. Also, in assay [2], the “bacterial growth (colonies on plate)” value is reported as “bacterial colonies are witnessed”. Moreover, in assay [3], the “emerin integrity and distribution” value is “normal emerin integrity and distribution”. The “lamin B1 integrity and distribution” value in assay [4] is “normal lamin B1 integrity and distribution”.
Turning to alizarin blue black b [ABBB], in assay [5], the cellular responses result is on record as “no detectable cellular responses”.
